Reference: patent US12544374B2, “AZA-quinoline compounds and uses thereof” (Novartis AG, priority 2019, dated 2026)
Where two headings read alike, the source gives them in different places.

Tests used:
[1] = target: wild type PRC2 (wtPRC2) complex (Homo sapiens (Human), UniProt Q15910); assay: EZH2 LC-MS assay (LC-Qualified); type: biochemical; details: (a) LC-Qualified assay
Experimental: Representative compounds of the invention were serially and separately diluted 3-fold in DMSO to obtain twelve concentrations. […] Solutions (6 μL) of 80 nM wild type PRC2 (wtPRC2) complex and 60 μM SAM in reaction buffer (20 mM Tris, pH 8.0, 0.1% BSA, 0.01% Triton, 0.5 mM DTT) were added to the wells that were then incubated with the test compound for 20 min. A 6 μL solution of 3 μM of the substrate peptide H3K27me1 (histone H3[21-44]-K27me1-biotin) and 6 μM regulatory peptide H3K27me3 (histone H3[21-44]-K27me3) in reaction buffer was added to initiate each reaction. […] The data were fit to a dose response equation using the program Helios to get the IC50 values of the test compound.

EZH2 = EZH2 (Homo sapiens (Human), UniProt Q15910); assay: ELISA (H3K27 methylation) assay in G401 cell; type: cell-based; details: (b) ELISA Qualified assay, 48 h
Experimental: Representative compounds of the invention were serially and separately diluted 3-fold in DO to obtain a total of eight or twelve concentrations. Then the compounds were added to G401 cell cultured in 384-well plate at 1:500 dilution to obtain the highest concentration of 20 μM. The cells were further cultured for 48 h before ELISA procedure.
ELISA protocol: Cell lysates were transferred to the wells of a 384-well plate and the final volume was adjusted to 50 μL per well with PBS. The plate was sealed, centrifuged at 2,000 rpm for 2 min and incubated at 4° C. for about 16 h. The plate was washed with TBST buffer (1×TBS (10×TBS: 24.2 g Tris (Sigma, T6066), 80 g NaCl (Sigma, S3014) to 1 L of water and adjust pH to 7.6 with HCl) with 0.1% Tween-20). Blocking buffer (TBST, 5% BSA; 50 μL per well) was added and the plate was incubated for 1 h at rt. The blocking buffer was removed and primary antibody was added (30 μL per well). […] The primary antibody was incubated in the plate at rt for 1 h. The wells were washed with TBST and incubated with secondary antibody for 1 h at rt.
After 1 h of incubation at rt, the wells were washed with TBST. […] The signal was read using a PerkinElmer Envision Reader. The H3K27 methylation readouts were normalized using H3 signal and then percentage inhibition was calculated against the samples treated with DO. The data were fit to a dose response curve using the program Helios to get the IC50 values of the test compound.

[2] = tested on: B cell lymphoma cell KARPAS422; assay: Analysis of cell proliferation, KARPAS422; type: cell-based, human; details: KARPAS422 after 14 days of treatment, read-out: antiproliferative activities IC50
Experimental: B cell lymphoma cell KARPAS422 was cultured using standard cell culture conditions in RPMI-1640 (Invitrogen, cat #11875) supplemented with 15% FBS (Invitrogen, cat #10099-141) in humidified incubator at 37° C., 5% CO2. To assess the effect of PRC2 inhibition on cell proliferation, exponentially growing cells were seeded at a density of 1×10^5 cells/mL in 12-well plate (Corning, cat #CLS3513). After cell seeding, a compound of the invention was added to the cell media (in concentrations ranging from 0 to 100 μM, 3× dilution series). Viable cell numbers were determined every 3-4 days for up to 14 days using Vi-CELL (Beckman Coulter). On days of cell counting, fresh growth media and compound were replenished and cells split back to a density of 1×10^5 cells/mL. Total cell number is expressed as split-adjusted viable cells per mL. The dose response curves and IC50 values were generated using Prism.

[3] = Homo sapiens, KARPAS-422, 336 h

EZH2, sequence (Q15910 whole entry): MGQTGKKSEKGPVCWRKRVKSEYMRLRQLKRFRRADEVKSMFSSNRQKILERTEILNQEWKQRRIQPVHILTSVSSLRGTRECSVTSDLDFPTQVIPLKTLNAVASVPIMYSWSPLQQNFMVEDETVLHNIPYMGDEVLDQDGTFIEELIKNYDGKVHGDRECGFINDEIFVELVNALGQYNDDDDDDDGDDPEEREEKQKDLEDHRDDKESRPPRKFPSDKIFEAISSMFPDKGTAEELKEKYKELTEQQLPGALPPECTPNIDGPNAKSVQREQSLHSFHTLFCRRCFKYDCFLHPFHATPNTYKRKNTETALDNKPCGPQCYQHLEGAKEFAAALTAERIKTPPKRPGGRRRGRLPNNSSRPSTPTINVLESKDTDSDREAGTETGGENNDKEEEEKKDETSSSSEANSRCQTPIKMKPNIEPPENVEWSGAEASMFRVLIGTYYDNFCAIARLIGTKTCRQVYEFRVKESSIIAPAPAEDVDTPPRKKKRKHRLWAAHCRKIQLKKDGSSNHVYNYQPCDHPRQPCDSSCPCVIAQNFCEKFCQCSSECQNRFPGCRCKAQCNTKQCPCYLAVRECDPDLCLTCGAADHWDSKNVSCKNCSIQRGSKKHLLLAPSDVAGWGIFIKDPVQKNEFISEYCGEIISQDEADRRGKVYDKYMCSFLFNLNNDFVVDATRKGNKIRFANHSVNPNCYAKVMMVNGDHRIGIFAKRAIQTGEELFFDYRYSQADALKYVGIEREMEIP
EZH2, sequence (Q15022 whole entry partner): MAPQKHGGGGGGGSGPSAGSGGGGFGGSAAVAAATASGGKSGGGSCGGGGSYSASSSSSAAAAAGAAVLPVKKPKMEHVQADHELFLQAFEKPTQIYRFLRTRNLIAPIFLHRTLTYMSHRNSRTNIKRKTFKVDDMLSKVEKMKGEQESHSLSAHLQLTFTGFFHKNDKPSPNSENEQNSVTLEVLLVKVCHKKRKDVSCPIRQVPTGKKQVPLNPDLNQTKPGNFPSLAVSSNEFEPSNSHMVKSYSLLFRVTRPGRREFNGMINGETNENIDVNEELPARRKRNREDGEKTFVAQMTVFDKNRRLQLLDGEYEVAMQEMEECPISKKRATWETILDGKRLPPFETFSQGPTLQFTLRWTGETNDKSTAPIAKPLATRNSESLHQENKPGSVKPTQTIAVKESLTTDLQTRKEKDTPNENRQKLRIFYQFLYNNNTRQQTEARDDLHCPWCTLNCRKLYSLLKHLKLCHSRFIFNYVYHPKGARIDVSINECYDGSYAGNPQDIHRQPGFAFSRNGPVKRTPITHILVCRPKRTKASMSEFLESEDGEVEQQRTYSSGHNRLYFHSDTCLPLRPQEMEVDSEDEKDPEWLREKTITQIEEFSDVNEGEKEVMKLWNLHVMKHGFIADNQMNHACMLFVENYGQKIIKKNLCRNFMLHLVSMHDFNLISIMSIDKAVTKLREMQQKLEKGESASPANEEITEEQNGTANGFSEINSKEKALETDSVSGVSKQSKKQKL
EZH2, sequence (O75530 whole entry partner): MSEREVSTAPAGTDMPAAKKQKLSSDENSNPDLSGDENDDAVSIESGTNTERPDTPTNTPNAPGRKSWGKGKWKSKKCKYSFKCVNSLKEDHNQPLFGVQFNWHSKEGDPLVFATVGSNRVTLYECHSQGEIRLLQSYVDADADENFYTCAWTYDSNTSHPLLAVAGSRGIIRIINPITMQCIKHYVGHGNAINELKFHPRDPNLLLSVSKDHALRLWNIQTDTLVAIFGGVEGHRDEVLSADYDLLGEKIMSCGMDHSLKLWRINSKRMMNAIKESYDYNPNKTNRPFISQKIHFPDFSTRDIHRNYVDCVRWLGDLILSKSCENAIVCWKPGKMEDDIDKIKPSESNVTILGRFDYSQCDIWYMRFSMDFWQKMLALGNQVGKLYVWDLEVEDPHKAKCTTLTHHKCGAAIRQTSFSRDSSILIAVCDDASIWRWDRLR
EZH2, sequence (Q09028 whole entry partner): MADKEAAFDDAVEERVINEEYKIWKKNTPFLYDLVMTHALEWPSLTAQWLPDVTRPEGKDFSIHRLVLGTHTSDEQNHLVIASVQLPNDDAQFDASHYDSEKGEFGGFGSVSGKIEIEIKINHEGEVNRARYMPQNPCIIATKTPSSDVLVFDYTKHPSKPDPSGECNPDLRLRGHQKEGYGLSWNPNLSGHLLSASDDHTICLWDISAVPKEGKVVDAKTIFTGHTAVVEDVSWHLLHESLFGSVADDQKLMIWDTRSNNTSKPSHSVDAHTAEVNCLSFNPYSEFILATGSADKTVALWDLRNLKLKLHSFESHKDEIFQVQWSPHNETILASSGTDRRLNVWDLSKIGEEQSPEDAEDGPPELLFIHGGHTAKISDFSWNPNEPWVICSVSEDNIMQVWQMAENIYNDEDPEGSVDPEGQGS
wild type PRC2 (wtPRC2) complex, sequence (Q15910 whole entry): as the sequence (Q15910 whole entry) above
wild type PRC2 (wtPRC2) complex, sequence (Q15022 whole entry partner): as the sequence (Q15022 whole entry partner) above
wild type PRC2 (wtPRC2) complex, sequence (O75530 whole entry partner): as the sequence (O75530 whole entry partner) above
wild type PRC2 (wtPRC2) complex, sequence (Q09028 whole entry partner): as the sequence (Q09028 whole entry partner) above
wild type PRC2 (wtPRC2) complex, sequence (Q6ZN18 whole entry partner): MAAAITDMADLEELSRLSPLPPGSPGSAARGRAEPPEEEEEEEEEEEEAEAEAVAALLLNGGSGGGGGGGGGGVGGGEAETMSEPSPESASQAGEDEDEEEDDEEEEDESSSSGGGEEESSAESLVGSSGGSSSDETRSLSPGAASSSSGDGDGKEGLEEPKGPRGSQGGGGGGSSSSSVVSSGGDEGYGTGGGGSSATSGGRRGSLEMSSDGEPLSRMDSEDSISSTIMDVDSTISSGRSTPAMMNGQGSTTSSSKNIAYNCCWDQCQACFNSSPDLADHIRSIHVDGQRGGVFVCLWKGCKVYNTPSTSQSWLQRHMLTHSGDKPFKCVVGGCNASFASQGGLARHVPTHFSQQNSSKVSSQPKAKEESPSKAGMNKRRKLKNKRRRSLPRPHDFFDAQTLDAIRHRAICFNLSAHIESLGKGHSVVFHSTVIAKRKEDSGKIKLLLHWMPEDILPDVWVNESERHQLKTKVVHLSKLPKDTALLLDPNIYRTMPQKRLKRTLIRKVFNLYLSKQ

SMILES | IC50 [1] [µM] | IC50 (EZH2) [µM] | IC50 [2, 3] [nM] | IC50 [2] [nM]
CC1(NCc2cnc(NC[C@H]3CC[C@H](Nc4ccc5ccnc(Cl)c5n4)CC3)nc2)COC1 [Compound C28, 8-chloro-N-((1,4-trans)-4-(((5-(((3-methyloxetan-3-yl)amino)methyl)pyrimidin-2-yl)amino)methyl)cyclohexyl)-1,7-naphthyridin-2-amine] | 0.031 | 0.005 | 2 | –
OCC1COC(c2cnc(NC[C@H]3CC[C@H](Nc4ccc5ccnc(Cl)c5n4)CC3)nc2)OC1 (mixture of isomers) [Compound C34, (2-(2-((((1,4-trans)-4-((8-chloro-1,7-naphthyridin-2-yl)amino)cyclohexyl)methyl)amino)pyrimidin-5-yl)-1,3-dioxan-5-yl)methanol] | 0.028 | 0.038 | 18 | –
N#CCCN(C(=O)Cc1cnc(NC[C@H]2CC[C@H](Nc3ccc4ccnc(Cl)c4n3)CC2)nc1)C1COC1 [Compound C49, 2-(2-((((1,4-trans)-4-((8-chloro-1,7-naphthyridin-2-yl)amino)cyclohexyl)methyl)amino)pyrimidin-5-yl)-N-(2-cyanoethyl)-N-(oxetan-3-yl)acetamide] | 0.008 | 0.002 | 0.5 | –
C[C@@H](C(=O)N1CC(O)C1)c1cnc(NC[C@H]2CC[C@H](Nc3ccc4ccnc(Cl)c4n3)CC2)nc1 [Compound C71, (R)-2-(2-((((1,4-trans)-4-((8-chloro-1,7-naphthyridin-2-yl)amino)cyclohexyl)methyl)amino)pyrimidin-5-yl)-1-(3-hydroxyazetidin-1-yl)propan-1-one] | – | – | 2 | –
CNc1nccc2ccc(N[C@H]3CC[C@H](CNc4ncc(C(N)=O)cn4)CC3)nc12 [Compound C61, 2-((((1,4-trans)-4-((8-(methylamino)-1,7-naphthyridin-2-yl)amino)cyclohexyl)methyl)amino)pyrimidine-5-carboxamide] | 0.049 | 0.032 | 41 | –
COc1nccc2ccc(N[C@H]3CC[C@H](CNc4ncc(C(=O)N5CCNCC5)cn4)CC3)nc12 [Compound C8, (2-((((1,4-trans)-4-((8-methoxy-1,7-naphthyridin-2-yl)amino)cyclohexyl)methyl)amino)pyrimidin-5-yl)(piperazin-1-yl)methanone] | 0.07 | 0.077 | 72 | –
COc1nccc2ccc(N[C@H]3CC[C@H](CNc4ncc(N)cn4)CC3)nc12 [Compound C1, N^2-(((1,4-trans)-4-((8-methoxy-1,7-naphthyridin-2-yl)amino)cyclohexyl)methyl)pyrimidine-2,5-diamine] | 0.121 | 0.042 | 20 | –
COC(=O)Nc1cnc(NC[C@H]2CC[C@H](Nc3ccc4ccnc(Cl)c4n3)CC2)nc1 [Compound C15, Methyl (2-((((1,4-trans)-4-((8-chloro-1,7-naphthyridin-2-yl)amino)cyclohexyl)methyl)amino)pyrimidin-5-yl)carbamate] | 0.017 | 0.028 | 31 | –
COc1nccc2ccc(N[C@H]3CC[C@H](CNc4ncc(NC(C)=O)cn4)CC3)nc12 [Compound C6, N-(2-((((1,4-trans)-4-((8-methoxy-1,7-naphthyridin-2-yl)amino)cyclohexyl)methyl)amino)pyrimidin-5-yl)acetamide] | 0.101 | 0.066 | 69 | –

The remaining lines, values ahead:

IC50 [1] [µM] | IC50 (EZH2) [µM] | IC50 [2, 3] [nM] | IC50 [2] [nM] | SMILES
– | – | 1 | – | O=C(NC1COC1)[C@H](O)c1cnc(NC[C@H]2CC[C@H](Nc3ccc4ccnc(Cl)c4n3)CC2)nc1 [Compound C76, (R)-2-(2-((((1,4-trans)-4-((8-chloro-1,7-naphthyridin-2-yl)amino)cyclohexyl)methyl)amino)pyrimidin-5-yl)-2-hydroxy-N-(oxetan-3-yl)acetamide]
0.015 | 0.002 | 0.7 | – | CN(C(=O)Cc1cnc(NC[C@H]2CC[C@H](Nc3ccc4ccnc(Cl)c4n3)CC2)nc1)C1COC1 [Compound C37, 2-(2-((((1,4-trans)-4-((8-chloro-1,7-naphthyridin-2-yl)amino)cyclohexyl)methyl)amino)pyrimidin-5-yl)-N-methyl-N-(oxetan-3-yl)acetamide]
0.018 | 0.007 | 2 | – | O=C(Cc1ccc(NC[C@H]2CC[C@H](Nc3ccc4ccnc(Cl)c4n3)CC2)nc1)NC1COC1 [Compound C42, 2-(6-((((1,4-trans)-4-((8-chloro-1,7-naphthyridin-2-yl)amino)cyclohexyl)methyl)amino)pyridin-3-yl)-N-(oxetan-3-yl)acetamide]
0.012 | 0.025 | 2 | – | O=C(NC1COC1)C(F)(F)c1cnc(NC[C@H]2CC[C@H](Nc3ccc4ccnc(Cl)c4n3)CC2)nc1 [Compound C77, 2-(2-((((1,4-trans)-4-((8-chloro-1,7-naphthyridin-2-yl)amino)cyclohexyl)methyl)amino)pyrimidin-5-yl)-2,2-difluoro-N-(oxetan-3-yl)acetamide]
0.027 | 0.019 | 8 | – | Clc1nccc2ccc(N[C@H]3CC[C@H](CNc4ncc(CNC5COC5)cn4)CC3)nc12 [Compound C27, 8-chloro-N-((1,4-trans)-4-(((5-((oxetan-3-ylamino)methyl)pyrimidin-2-yl)amino)methyl)cyclohexyl)-1,7-naphthyridin-2-amine]
0.038 | 0.018 | 8 | – | O=C(Cc1cnc(NC[C@H]2CC[C@H](Nc3ccc4ccnc(Cl)c4n3)CC2)nc1)N(CCO)C1COC1 [Compound C51, 2-(2-((((1,4-trans)-4-((8-chloro-1,7-naphthyridin-2-yl)amino)cyclohexyl)methyl)amino)pyrimidin-5-yl)-N-(2-hydroxyethyl)-N-(oxetan-3-yl)acetamide]
0.009 | 0.011 | 3 | – | O=C(Cc1cnc(NC[C@H]2CC[C@H](Nc3ccc4ccnc(Cl)c4n3)CC2)nc1)NC1COC1 [Compound C36, 2-(2-((((1,4-trans)-4-((8-chloro-1,7-naphthyridin-2-yl)amino)cyclohexyl)methyl)amino)pyrimidin-5-yl)-N-(oxetan-3-yl)acetamide]
– | – | – | 0.3 | C[C@H](C(=O)NC1COC1)c1cnc(NC[C@H]2CC[C@H](Nc3ccc4ccnc(Cl)c4n3)CC2)nc1 (relative stereo) [Compound C53, (S)-2-(2-((((1,4-trans)-4-((8-chloro-1,7-naphthyridin-2-yl)amino)cyclohexyl)methyl)amino)pyrimidin-5-yl)-N-(oxetan-3-yl)propanamide]
0.054 | 0.163 | – | – | O=C(Cc1cnc(NC[C@H]2CC[C@H](Nc3ccc4ccnc(Cl)c4n3)CC2)nc1)NC1CCC1 [Compound C44, 2-(2-((((1,4-trans)-4-((8-chloro-1,7-naphthyridin-2-yl)amino)cyclohexyl)methyl)amino)pyrimidin-5-yl)-N-cyclobutylacetamide]
